Results as given in patent US8987192B2, “Potent and selective mediators of cholesterol efflux” (The Regents of the University of California, priority 2006, dated 2015).
“Also recorded” adds a separate entry of the source.

Tests used:
[1] = tested on: ABCA1; test: Cholesterol efflux in the absence and presence of ABCA1 (mouse macrophages and HeLa cells transfected with ABCA1 cDNA); type: cell-based; details: 8 hours, saturating peptide >30-fold Km
Excerpt: The large excess of polypeptide was provided to determine the extent (if any) of non-specific efflux, in the absence of ABCA1 induction.

[2] = tested on: Interleukin-6; test: Serum Interleukin-6 in ApoE -/- mice (fluorescent bead immunoassay); type: in vivo, mouse
Excerpt: Apolipoprotein E deficient (ApoE −/−) mice at 6 weeks old were given a Western diets for 18 weeks before commencing treatment. Once daily, intraperitoneal injections were given as saline or the polypeptide of SEQ ID NO:4 (n=6-7 per group). At termination, serum was collected and analyzed for Interleukin-6 concentration by a fluorescent bead immunoassay utilizing flow cytometry (BMS820FF). Mice treated with the polypeptide of SEQ ID NO:4 had about 68% lower serum levels of IL-6 (see, FIG. 22).

[3] = tested on: Apolipoprotein E deficient (Apo E −/−) mice; test: Established atherosclerosis in Apo E -/- mice on high-fat diet (Example 18); type: in vivo, mouse; details: 10 mg/kg IP at 2-day intervals
Procedure: Male Apolipoprotein E deficient (Apo E −/−) mice (six-weeks of age) were fed a high-fat diet for 26 weeks. During the last 6 weeks on the high-fat diet, the mice received intraperitoneal (IP) injections of either saline or the polypeptide of SEQ ID NO:4 (10 mg/kg) at 2-day intervals. […] The effect of the polypeptide reducing established atherosclerosis was highly significant, as judged by the lipid-content of plaques in the aortic sinus (see, FIG. 18). This was accomplished using the lipid-free polypeptide of SEQ ID NO:4 composed of all L-amino acids administered in the continued presence of the dietary insult.

[4] = tested on: Apolipoprotein E knock-out mice; test: Atherosclerosis in Apolipoprotein E knock-out mice on Western diet, pooled series (Example 19); type: in vivo, mouse
Procedure: The polypeptide of SEQ ID NO:4 and its Y26 analog have been evaluated with respect to ability to inhibit atherosclerosis in Apolipoprotein E knock-out mice. The mice were given Western diet for 18 weeks and then randomized to receive saline, free polypeptide or polypeptide-phospholipid complex. […] The degree of atherosclerosis was then determined in whole aorta and aortic root/sinus. Three experimental series were performed. […] The results are equal to or better than previously have been obtained with IV infusions of 40 mg/kg Apolipoprotein A-I Milano/phospholipids complex into Apo E knock-out mice (Shah et al., Circ., 97:780-5, 1998).
As noted above, data from three experimental series were pooled. Pooling of data is justified as only minor changes in the procedures were made (21 injections at 30 mg/kg over 42 and 21 days, respectively), and the diet regimens and sources of mice and polypeptide, respectively, were the same. In the first experiment S26 was substituted for Y26.

[5] = tested on: J774 macrophages; test: Pretreatment of macrophages, then Apo A-I-mediated cholesterol efflux; type: cell-based, mouse; details: 4 hour pretreatment, vs serum-free medium alone; Apo A-I 10 μg/ml
Procedure: To determine whether conditioning of macrophages with the polypeptide of SEQ ID NO:4 upregulates cholesterol efflux to native apolipoproteins, J774 macrophages labeled with [^3H]cholesterol were induced for the ABCA1 response using a cAMP analog (24 h). This was followed by a 4 hour treatment (no cAMP) with serum-free medium alone or medium containing the polypeptide of SEQ ID NO:4. After 4 h with no cAMP, cholesterol efflux was initiated by adding fresh medium containing Apo A-I (10 μg/ml). Polypeptide of SEQ ID NO:4 pretreatment produced a 40% increase in Apo A-I-mediated cholesterol efflux from macrophages, compared to pretreatment with serum-free medium alone (see, FIG. 6).

[6] = target: ABCA1 (Mus musculus, UniProt P41233); test: ABCA1 protein stabilization in J774 macrophages (Western blot); type: cell-based; design: endogenous in cells; host or cells: J774 mouse macrophages; details: 6 hours serum-free medium, no cAMP
Procedure: In some embodiments, the stabilization of ABCA is measured by direct measurement of ABCA (e.g., ABCA protein, or nucleic acid) using a cell based assay. Cell based assays can be performed in any cells in which ABCA is expressed (e.g., J774 macrophages), including cells which have been transfected with ABCA (e.g. HeLa cells). Any cell type can be used. For example, J774 macrophages can be used to assess relative ABCA1 protein levels in the presence and absence of polypeptides of the invention. The cells are first contacted with a compound that will induce ABCA (e.g., cAMP or a cAMP analogue such as, 8-bromo-cAMP) to upregulate ABCA (e.g., ABCA1) expression, then exposed to […] polypeptides of the invention in the absence of the cAMP stimulus to evaluate whether ABCA1 protein was stabilized or degraded. Relative levels of ABCA1 protein can be assessed using any means known in the art including, e.g., immunoblot analysis of cell membranes (Oram et al., J. Biol. Chem., 278:52379-52385 (2003)) or hybridization of nucleic acid probes to ABCA mRNA.
To test whether the polypeptides of the present invention stabilize cellular ABCA1 protein concentrations, J774 mouse macrophages were treated with a cAMP analogue (24 h) to upregulate ABCA1 expression. […] ABCA1 protein in cell lysates was determined by Western blot analysis. […]

[7] = tested on: LDLr knockout mice; test: Atherosclerosis in LDLr knockout mice; type: in vivo, mouse; details: 30 mg/kg IP every day for 6 weeks on chow after 26 weeks western-diet
Procedure: Beginning at 6 weeks of age, LDLr knockout mice were fed a high-fat western-diet for 26 weeks. After the dietary challenge, mice were switched to standard chow for 6 weeks. During the 6 weeks on chow diet, mice were injected IP every day with either the polypeptide of SEQ ID NO:4 or a polypeptide of SEQ ID NO:4:POPC complexes at a dose of 30 mg/kg. Control mice received IP injections with PBS vehicle alone. The presence of plaque lesions in the whole aorta was then evaluated.

[8] = 30 mg/kg IP, 6 weeks of treatment

Chain of ABCA1 (Mus musculus, UniProt P41233) (P41233 whole entry): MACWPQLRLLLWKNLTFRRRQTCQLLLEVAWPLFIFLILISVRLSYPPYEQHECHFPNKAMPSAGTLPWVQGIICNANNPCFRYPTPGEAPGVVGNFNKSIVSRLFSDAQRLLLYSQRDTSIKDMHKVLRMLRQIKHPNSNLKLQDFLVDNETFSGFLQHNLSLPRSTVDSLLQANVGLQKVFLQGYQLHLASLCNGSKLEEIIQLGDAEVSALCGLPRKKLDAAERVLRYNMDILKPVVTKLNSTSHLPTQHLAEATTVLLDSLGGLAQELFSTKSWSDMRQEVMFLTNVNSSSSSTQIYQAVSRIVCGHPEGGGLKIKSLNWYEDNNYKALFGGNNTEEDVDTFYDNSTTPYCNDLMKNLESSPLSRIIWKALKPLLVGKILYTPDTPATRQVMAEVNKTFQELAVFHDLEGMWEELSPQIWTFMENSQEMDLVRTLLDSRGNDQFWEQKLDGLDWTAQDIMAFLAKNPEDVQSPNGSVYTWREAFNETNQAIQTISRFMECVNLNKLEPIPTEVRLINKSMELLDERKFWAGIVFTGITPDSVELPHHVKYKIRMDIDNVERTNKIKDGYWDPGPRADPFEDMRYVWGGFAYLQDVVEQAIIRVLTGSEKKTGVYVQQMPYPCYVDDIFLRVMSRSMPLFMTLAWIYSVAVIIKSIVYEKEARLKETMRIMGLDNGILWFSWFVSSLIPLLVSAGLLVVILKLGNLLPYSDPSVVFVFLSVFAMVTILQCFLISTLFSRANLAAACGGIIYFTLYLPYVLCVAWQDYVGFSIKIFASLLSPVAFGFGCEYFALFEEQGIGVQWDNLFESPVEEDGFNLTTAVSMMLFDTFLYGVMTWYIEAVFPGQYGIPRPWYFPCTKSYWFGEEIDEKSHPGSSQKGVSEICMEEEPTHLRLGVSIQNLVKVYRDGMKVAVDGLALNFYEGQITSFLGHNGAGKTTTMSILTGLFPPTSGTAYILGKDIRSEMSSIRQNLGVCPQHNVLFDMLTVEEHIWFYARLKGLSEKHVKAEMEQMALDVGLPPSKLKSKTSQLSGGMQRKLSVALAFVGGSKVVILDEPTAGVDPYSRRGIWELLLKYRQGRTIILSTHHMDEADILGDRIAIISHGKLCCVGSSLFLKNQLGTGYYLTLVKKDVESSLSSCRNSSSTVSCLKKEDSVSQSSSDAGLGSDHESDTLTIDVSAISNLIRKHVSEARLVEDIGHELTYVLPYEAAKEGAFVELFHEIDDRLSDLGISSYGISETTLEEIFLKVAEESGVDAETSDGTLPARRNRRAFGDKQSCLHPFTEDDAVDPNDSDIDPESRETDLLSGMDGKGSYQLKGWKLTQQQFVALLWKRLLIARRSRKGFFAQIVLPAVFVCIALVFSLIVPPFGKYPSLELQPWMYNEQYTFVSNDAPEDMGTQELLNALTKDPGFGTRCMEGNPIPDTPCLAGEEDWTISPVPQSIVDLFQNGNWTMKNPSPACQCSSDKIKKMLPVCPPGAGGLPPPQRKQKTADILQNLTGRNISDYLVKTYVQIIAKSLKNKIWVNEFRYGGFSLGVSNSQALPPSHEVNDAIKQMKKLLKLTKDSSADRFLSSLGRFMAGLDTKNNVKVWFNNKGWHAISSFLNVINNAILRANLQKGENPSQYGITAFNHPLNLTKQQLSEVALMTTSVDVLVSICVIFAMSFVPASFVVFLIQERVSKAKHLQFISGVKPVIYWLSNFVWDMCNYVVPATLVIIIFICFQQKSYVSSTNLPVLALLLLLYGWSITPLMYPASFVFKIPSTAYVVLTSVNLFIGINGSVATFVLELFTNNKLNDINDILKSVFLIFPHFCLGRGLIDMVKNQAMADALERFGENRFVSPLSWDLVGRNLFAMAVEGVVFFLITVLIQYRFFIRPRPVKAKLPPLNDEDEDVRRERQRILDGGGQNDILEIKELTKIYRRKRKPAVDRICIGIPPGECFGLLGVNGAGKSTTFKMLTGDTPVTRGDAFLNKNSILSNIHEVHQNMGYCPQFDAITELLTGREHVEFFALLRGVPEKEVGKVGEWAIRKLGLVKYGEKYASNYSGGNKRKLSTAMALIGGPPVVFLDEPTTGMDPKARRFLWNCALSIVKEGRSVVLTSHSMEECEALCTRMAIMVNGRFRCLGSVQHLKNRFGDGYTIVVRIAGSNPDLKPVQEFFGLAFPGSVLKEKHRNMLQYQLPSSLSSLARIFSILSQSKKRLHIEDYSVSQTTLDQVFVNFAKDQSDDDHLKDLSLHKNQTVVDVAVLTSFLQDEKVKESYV

Sequence: EVRSKLEEWFAAFREFAEEFLARLKS (ATI-5261 amphipathic alpha-helix polypeptide core sequence selectively binds HDL, high-affinity ligand for ATP-binding cassette transporter A1 (ABCA1), ABCA1-lipid cholesterol efflux, ABCA1-stablization, anti-oxidant and anti- inflammatory activity) [SEQ ID NO:4]
- non-specific efflux activity in the absence of ABCA1 [1]: minimal
- requirement of ABCA1 for cholesterol efflux activity ([1]; mouse macrophages and ABCA1-transfected HeLa): required ABCA1 for efflux activity
- serum IL-6 versus saline (in words) ([2]; mouse, in vivo): lowered levels of the inflammatory cytokine IL-6
- lower serum levels of IL-6 ([2]; once daily IP, vs saline, after 18 weeks Western diet): about 68%
- effect on established atherosclerosis (in words) ([3]; 6 weeks): reduced aortic plaque lipid content; also recorded: significantly reduced established atherosclerosis
- greater atherosclerosis in saline control mice compared to treated mice ([3]; last 6 weeks of 26 weeks high-fat diet, lipid-content of aortic sinus plaques): 38%
- lipid-content of aortic sinus plaque [4, 8]: decreased the lipid-content of aortic sinus plaque
- plaque lesion area over the whole aorta [4, 8]: reduced plaque lesion area over the whole aorta
- antiatherosclerotic effect (whole aorta and aortic root/sinus) ([4]; 30 mg/kg IP, 21 injections, pooled data of three series): significant antiatherosclerotic effects
- p versus control, FIG. 19A percent of lipid in plaque in whole aorta ([4]; pooled data): < 0.0040
- increase in Apo A-I-mediated cholesterol efflux after pretreatment [5]: 40%
- ABCA1 protein in cell lysates after cAMP withdrawal [6]: prevented the disappearance of ABCA1 protein
- plaque lesions in the whole aorta [7]: reduced plaque lesion area over the whole aorta; also recorded: the amount of plaque was reduced
